Consider 31 molecules from patent US20220002314A1 (priority 2018, published 2022).

Experiment [1] has as its target Human μ-opioid receptor (Homo sapiens, UniProt P35372). Kind of experiment: biochemical. The class given is binding.
Experiment [2] addresses Human α2δ-1 subunit of Cav2.2 calcium channel (Homo sapiens, UniProt P54289). Kind of experiment: biochemical. The class given is binding.

pKi: −log10 of the molar value. Like-named read-outs stand apart in the source and are kept apart here.

Chain of Human α2δ-1 subunit of Cav2.2 calcium channel (P54289 25-1103): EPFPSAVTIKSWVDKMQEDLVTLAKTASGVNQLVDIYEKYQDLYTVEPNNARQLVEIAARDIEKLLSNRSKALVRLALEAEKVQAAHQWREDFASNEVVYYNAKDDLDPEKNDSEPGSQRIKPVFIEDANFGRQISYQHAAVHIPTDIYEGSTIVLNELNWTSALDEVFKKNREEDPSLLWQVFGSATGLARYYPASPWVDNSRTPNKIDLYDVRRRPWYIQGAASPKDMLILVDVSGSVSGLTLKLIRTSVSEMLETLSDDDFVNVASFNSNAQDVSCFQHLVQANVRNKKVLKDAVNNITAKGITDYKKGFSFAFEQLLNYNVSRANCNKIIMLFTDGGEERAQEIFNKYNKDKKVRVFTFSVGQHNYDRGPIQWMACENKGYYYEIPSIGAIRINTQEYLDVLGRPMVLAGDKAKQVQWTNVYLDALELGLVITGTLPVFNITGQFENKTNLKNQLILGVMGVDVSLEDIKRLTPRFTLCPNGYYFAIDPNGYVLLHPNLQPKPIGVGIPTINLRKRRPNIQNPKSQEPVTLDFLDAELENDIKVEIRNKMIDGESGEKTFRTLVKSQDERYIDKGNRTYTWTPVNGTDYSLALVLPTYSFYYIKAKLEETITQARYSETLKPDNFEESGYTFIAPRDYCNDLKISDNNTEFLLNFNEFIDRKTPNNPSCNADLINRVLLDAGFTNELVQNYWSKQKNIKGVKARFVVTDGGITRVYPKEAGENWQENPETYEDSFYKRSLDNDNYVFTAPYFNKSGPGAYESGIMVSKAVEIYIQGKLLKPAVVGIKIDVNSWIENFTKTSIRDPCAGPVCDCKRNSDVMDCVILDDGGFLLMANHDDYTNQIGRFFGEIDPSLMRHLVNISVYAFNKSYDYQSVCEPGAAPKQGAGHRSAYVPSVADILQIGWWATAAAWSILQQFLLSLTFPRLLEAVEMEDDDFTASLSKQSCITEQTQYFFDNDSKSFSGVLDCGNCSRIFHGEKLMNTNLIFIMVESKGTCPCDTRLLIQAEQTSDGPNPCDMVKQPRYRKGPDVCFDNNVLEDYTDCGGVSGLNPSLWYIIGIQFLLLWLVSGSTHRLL
Chain of Human μ-opioid receptor (P35372 whole entry): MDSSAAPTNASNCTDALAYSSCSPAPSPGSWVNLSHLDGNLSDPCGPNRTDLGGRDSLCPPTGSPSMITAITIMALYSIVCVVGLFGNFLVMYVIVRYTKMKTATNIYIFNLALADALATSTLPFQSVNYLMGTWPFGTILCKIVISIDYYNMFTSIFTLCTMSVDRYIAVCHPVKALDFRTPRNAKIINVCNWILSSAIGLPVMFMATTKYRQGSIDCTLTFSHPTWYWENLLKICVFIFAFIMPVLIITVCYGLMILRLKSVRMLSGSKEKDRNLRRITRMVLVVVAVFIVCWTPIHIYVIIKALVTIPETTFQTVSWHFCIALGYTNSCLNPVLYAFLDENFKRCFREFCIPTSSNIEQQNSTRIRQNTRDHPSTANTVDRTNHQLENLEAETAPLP

As for `CCC[C@H](c1nc2ccc(O)cc2c(=O)n1CC)N1C[C@@H](C)N[C@@H](C)C1` [Example 35, 2-((R)-1-((3S,5R)-3,5-Dimethylpiperazin-1-yl)butyl)-3-ethyl-6-hydroxyquinazolin-4(3H)-one], the pKi in experiment [1] is under 6.30; in experiment [2], over 6.30.

With `CCC[C@H](c1nc2cc(F)c(OC)cc2c(=O)n1CC)N1CCN[C@@H](C)C1` [Example 213, 3-ethyl-7-fluoro-6-methoxy-2-((R)-1-((S)-3-methylpiperazin-1-yl)butyl)quinazolin-4(3H)-one], the results for the pKi in experiment [1] and in experiment [2] were under 6.30 and over 6.30, respectively.

In the case of `CCC[C@@H](c1nc2ccc(N3C[C@@H](C)OC4(CCN(CCc5ccccc5)CC4)C3)cc2c(=O)n1CC)N1C[C@@H](C)N[C@@H](C)C1` [Example 154, 2-((S)-1-((3S,5R)-3,5-Dimethylpiperazin-1-yl)butyl)-3-ethyl-6-((R)-2-methyl-9-phenethyl-1-oxa-4,9-diazaspiro[5.5]undecan-4-yl)quinazolin-4(3H)-one], the pKi was under 6.30 in experiment [1] and over 6.30 in experiment [2].

Consider `CCC[C@H](c1nc2ccncc2c(=O)n1CC)N1CCN[C@@H](C)C1` [Example 66, 3-Ethyl-2-((R)-1-((S)-3-methylpiperazin-1-yl)butyl)pyrido[4,3-d]pyrimidin-4(3H)-one], for which the results for the pKi in experiment [1] and in experiment [2] were under 6.30 and over 6.30, respectively.

`CCC[C@H](c1nc2ccc(F)cc2c(=O)n1CC)N1CCN[C@@H](C)C1` [Example 214, 3-ethyl-6-fluoro-2-((R)-1-((S)-3-methylpiperazin-1-yl)butyl)quinazolin-4(3H)-one]: the values for the pKi in experiment [1] and in experiment [2] were 6.30 to 7.00 and over 6.30, respectively.

On to `CCC[C@@H](c1nc2c(F)cc(OC)cc2c(=O)n1CC)N1CCN[C@@H](C)C1` [Example 45, 3-Ethyl-8-fluoro-6-methoxy-2-((S)-1-((S)-3-methylpiperazin-1-yl)butyl)quinazolin-4(3H)-one], for which the pKi in experiment [1] was under 6.30; in experiment [2], under 5.30.

Regarding `CCCC(c1nc2ccc(CCN(C)CCC(C)C)cc2c(=O)n1CC)N1C[C@@H](C)N[C@@H](C)C1` (stereo partly drawn) [Example 175, 2-(1-((3S,5R)-3,5-dimethylpiperazin-1-yl)butyl)-3-ethyl-6-(2-(isopentyl(methyl)amino)ethyl)quinazolin-4(3H)-one], the pKi is under 6.30 in experiment [1] and over 6.30 in experiment [2].

For `CCC[C@H](c1nc2cc(O[C@@H](CCNC)c3ccccc3)ccc2c(=O)n1C)N1C[C@@H](C)N[C@@H](C)C1` [Example 167, 2-((R)-1-((3S,5R)-3,5-dimethylpiperazin-1-yl)butyl)-3-methyl-7-((S)-3-(methylamino)-1-phenylpropoxy)quinazolin-4(3H)-one], the results for the pKi in experiment [1] and in experiment [2] were under 6.30 and over 6.30, respectively.

Regarding `CCC[C@@H](c1nc2cc(F)c(Cl)cc2c(=O)n1CC)N1CCN[C@@H](C)C1` [Example 54, 6-chloro-3-ethyl-7-fluoro-2-((S)-1-((S)-3-methylpiperazin-1-yl)butyl)quinazolin-4(3H)-one], the pKi in experiment [1] is under 6.30; in experiment [2] it was under 5.30.

On to `CCC[C@H](c1nc2ccc(F)c(F)c2c(=O)n1C)N1CCN[C@@H](C)C1` [Example 222, 5,6-difluoro-3-methyl-2-((R)-1-((S)-3-methylpiperazin-1-yl)butyl)quinazolin-4(3H)-one], for which the pKi in experiment [1] (read-out: μ-binding) is under 6.30; in experiment [2] (read-out: α2δ-1 binding) it was 5.30 to 6.30.

On to `CCCC(c1nc2cccc(O)c2c(=O)n1CC)N1C[C@@H](C)N[C@@H](C)C1` (stereo partly drawn) [Example 15, 2-(1-((3S,5R)-3,5-dimethylpiperazin-1-yl)butyl)-3-ethyl-5-hydroxyquinazolin-4(3H)-one], for which the pKi in experiment [1] is under 6.30; in experiment [2] it was over 6.30.

Take `CCC[C@@H](c1nc2ccc(O)cc2c(=O)n1CC)N1C[C@@H](C)N[C@@H](C)C1` [Example 36, 2-((S)-1-((3S,5R)-3,5-dimethylpiperazin-1-yl)butyl)-3-ethyl-6-hydroxyquinazolin-4(3H)-one]: the pKi was under 6.30 in experiment [1] and 5.30 to 6.30 in experiment [2].

As to `CCC[C@@H](c1nc2nc(C(F)(F)F)ccc2c(=O)n1CC)N1CCN[C@@H](C)C1` [Example 77, 3-Ethyl-2-((S)-1-((S)-3-methylpiperazin-1-yl)butyl)-7-(trifluoromethyl)pyrido[2,3-d]pyrimidin-4(3H)-one], the pKi in experiment [1] was under 6.30; in experiment [2] it was under 5.30.

With `CCCC(c1nc2cc(Br)ccc2c(=O)n1C)N1C[C@@H](C)N[C@@H](C)C1` (stereo partly drawn) [Example 17, 7-bromo-2-(1-((3S,5R)-3,5-dimethylpiperazin-1-yl)butyl)-3-methylquinazolin-4(3H)-one], the pKi is under 6.30 in experiment [1] and over 6.30 in experiment [2].

`CCC[C@H](c1nc2c(F)cc(Cl)cc2c(=O)n1CC)N1CCN[C@@H](C)C1` [Example 217, 6-chloro-3-ethyl-8-fluoro-2-((R)-1-((S)-3-methylpiperazin-1-yl)butyl)quinazolin-4(3H)-one]: the pKi is over 7.00 in experiment [1] and over 6.30 in experiment [2].

Regarding `CCC[C@H](c1nc2ccc(Cl)cc2c(=O)n1CC)N1CCN[C@@H](CF)C1` [Example 230, 6-chloro-3-ethyl-2-((R)-1-((R)-3-(fluoromethyl)piperazin-1-yl)butyl)quinazolin-4(3H)-one], the pKi in experiment [1] was under 6.30; in experiment [2] it was 5.30 to 6.30.

Turning to `CCCC(c1nc2cc(N(CC)C(=O)OC(C)(C)C)ccc2c(=O)n1CC)N1C[C@@H](C)N[C@@H](C)C1` (stereo partly drawn) [Example 26, tert-butyl (2-(1-((3S,5R)-3,5-dimethylpiperazin-1-yl)butyl)-3-ethyl-4-oxo-3,4-dihydroquinazolin-7-yl)(ethyl)carbamate], the pKi in experiment [1] (read-out: μ-binding) was under 6.30; in experiment [2] (read-out: α2δ-1 binding) it was 5.30 to 6.30.

For `COCCn1c(C(CC2CC2)N2C[C@@H](C)N[C@@H](C)C2)nc2ccccc2c1=O` (stereo partly drawn) [Example 116, 2-(2-cyclopropyl-1-((3S,5R)-3,5-dimethylpiperazin-1-yl)ethyl)-3-(2-methoxyethyl)quinazolin-4(3H)-one], the pKi in experiment [1] (read-out: μ-binding) was under 6.30; in experiment [2], 5.30 to 6.30.

Consider `CCC[C@H](c1nc2c(F)cc(OC)c(Br)c2c(=O)n1CC)N1CCNCC1` [Example 40, (R)-5-bromo-3-ethyl-8-fluoro-6-methoxy-2-(1-(piperazin-1-yl)butyl)quinazolin-4(3H)-one], for which the pKi in experiment [1] (read-out: μ-binding) was under 6.30; in experiment [2] (read-out: α2δ-1 binding), 5.30 to 6.30.

Take `CCCC(c1nc2ccc(OC)cc2c(=O)n1CCOC)N1C[C@@H](C)N[C@@H](C)C1` (stereo partly drawn) [Example 120, 2-(1-((3S,5R)-3,5-dimethylpiperazin-1-yl)butyl)-6-methoxy-3-(2-methoxyethyl)quinazolin-4(3H)-one]: the pKi in experiment [1] is under 6.30; in experiment [2] it was over 6.30.

Regarding `CCC[C@@H](c1nc2ncc(Br)cc2c(=O)n1CC)N1CCN[C@@H](C)C1` [Example 69, 6-bromo-3-ethyl-2-((S)-1-((S)-3-methylpiperazin-1-yl)butyl)pyrido[2,3-d]pyrimidin-4(3H)-one], the pKi is under 6.30 in experiment [1] and under 5.30 in experiment [2].

With `CCCC(c1nc2c(Br)c(OC)ccc2c(=O)n1CC)N1C[C@@H](C)N[C@@H](C)C1` (stereo partly drawn) [Example 5, 8-bromo-2-(1-((3S,5R)-3,5-dimethylpiperazin-1-yl)butyl)-3-ethyl-7-methoxyquinazolin-4(3H)-one], the values for the pKi in experiment [1] (read-out: μ-binding) and in experiment [2] (read-out: α2δ-1 binding) were under 6.30 and 5.30 to 6.30, respectively.

Take `CCC[C@H](c1nc2ccccc2c(=O)n1C)N1C[C@@H](C)N[C@@H](C)C1` [Example 32, 2-((R)-1-((3S,5R)-3,5-dimethylpiperazin-1-yl)butyl)-3-methylquinazolin-4(3H)-one]: the pKi in experiment [1] is under 6.30; in experiment [2], over 6.30.

Take `CCC[C@H](c1nc2ccc(Br)cc2c(=O)n1CC)N1CCN[C@H](CO)C1` [Example 58, 6-Bromo-3-ethyl-2-((R)-1-((S)-3-(hydroxymethyl)piperazin-1-yl)butyl)quinazolin-4(3H)-one]: the values for the pKi in experiment [1] and in experiment [2] were under 6.30 and over 6.30, respectively.

Turning to `CCCC(c1nc2cc(-c3cccc(O)c3)ccc2c(=O)n1CC)N1C[C@@H](C)N[C@@H](C)C1` (stereo partly drawn) [Example 134, 2-(1-((3S,5R)-3,5-dimethylpiperazin-1-yl)butyl)-3-ethyl-7-(3-hydroxyphenyl)quinazolin-4(3H)-one], the results for the pKi in experiment [1] and in experiment [2] were under 6.30 and over 6.30, respectively.

As for `CCC[C@@H](c1nc2c(F)cc(OC)cc2c(=O)n1CC)N1CCNCC1` [Example 37, (S)-3-Ethyl-8-fluoro-6-methoxy-2-(1-(piperazin-1-yl)butyl)quinazolin-4(3H)-one], the pKi in experiment [1] is under 6.30; in experiment [2], under 5.30.

With `CCCC(c1nc2ccc(CN(C)Cc3ccccc3)cc2c(=O)n1CC)N1C[C@@H](C)N[C@@H](C)C1` (stereo partly drawn) [Example 183, 6-((benzyl(methyl)amino)methyl)-2-(1-((3S,5R)-3,5-dimethylpiperazin-1-yl)butyl)-3-ethylquinazolin-4(3H)-one], the values for the pKi in experiment [1] and in experiment [2] were under 6.30 and over 6.30, respectively.

As to `CCCC(c1nc2ccccc2c(=O)n1CCOC)N1CCNCC1` (centres unmarked) [Example 117, 3-(2-methoxyethyl)-2-(1-(piperazin-1-yl)butyl)quinazolin-4(3H)-one], the pKi was under 6.30 in experiment [1] (read-out: μ-binding) and 5.30 to 6.30 in experiment [2].

As to `CCC[C@@H](c1nc2ccc(Br)cc2c(=O)n1CC)N1CCN[C@@H](CF)C1` [Example 56, 6-bromo-3-ethyl-2-((S)-1-((R)-3-(fluoromethyl)piperazin-1-yl)butyl)quinazolin-4(3H)-one], the pKi was under 6.30 in experiment [1] and under 5.30 in experiment [2].

On to `CCC[C@H](c1nc2cc(Cl)c(Cl)cc2c(=O)n1CC)N1CCN[C@@H](C)C1` [Example 49, 6,7-Dichloro-3-ethyl-2-((R)-1-((S)-3-methylpiperazin-1-yl)butyl)quinazolin-4(3H)-one], for which the pKi was 6.30 to 7.00 in experiment [1] and over 6.30 in experiment [2].

As for `CCCC(c1nc2cc(-c3ccnc(OC)c3)ccc2c(=O)n1CC)N1C[C@@H](C)N[C@@H](C)C1` (stereo partly drawn) [Example 135, 2-(1-((3S,5R)-3,5-dimethylpiperazin-1-yl)butyl)-3-ethyl-7-(2-methoxypyridin-4-yl)quinazolin-4(3H)-one], the pKi in experiment [1] was under 6.30; in experiment [2], over 6.30.
